Tests used:
Assay type in all cases: in vivo, Zea mays
[1] = test system: Corn seed (Hughes 5813); test: Seed treatment with ABA and stimulators of guanylate cyclase, cold damage during germination
Procedure: Corn seed (Hughes 5813) was treated with sodium ABA salt as described under Example 3. ABA rates of 0 and 20 ug/seed were applied either alone or with compounds that are selective and potent activators of soluble guanylate cyclase in animal and plant cells. These agent are YC-1 (3-(5′-hydroxymethyl-2′-furyl)-1-benzylindazole) and BAY 41-2272 (5-cyclopropyl-2-[1-(2-fluoro-benzyl)-1H-pyrazolo[3,4-b]pyridine-3-yl]pyrimidin-4-ylamine).

[2] = test system: Corn ("Hughes High" variety) seedlings; test: Dip treatment of 2-day old corn seedlings, cold damage after 0° C. for 4 days (rolled towels); details: for Adventitious root growth (%) / Destroyed roots (%) / Lethal shoot (%): ~30 s, 0° C. 4 days, scored 3 days later
Procedure: Corn (“Hughes High” variety) was germinated in the dark in moist rolled towels at 25° C. for 2 days. Seedlings were selected that were undamaged, with a radicle of 1-2 cm and a coleoptile of 0.5 to 1 cm in length. Solutions in water with 5% ethanol were made with different concentrations of ABA and PBI-429. The seedlings were dipped in the solutions with gentle agitation for approximately 30 seconds and drained. The seedlings were placed on moist towels, gently rolled and held at 18° C. for 16 hours. Then the rolled towels were packed in ice for four days. After the chilling period, the rolled towels were blotted to remove excess water and transferred to a 25° C. chamber. Seedling damage was scored 3 days later. Lethal injury of the shoot consisted of either destruction of the mesocotyl or splitting or reduction of the coleoptile judged sufficient to prevent emergence of seedlings in the field (although this trial was conducted in towels). Seedlings with destroyed roots had no living primary or seminal roots. Seedlings with adventitious root growth from the mesocotyl were counted.

[3] = test system: "Hughes High" hybrid corn seed; test: Seed treatment with ABA, cold damage (ice, 4 days) during germination in moist towels; details: 48 h at 25° C., then ice 4 days
Procedure: ABA was applied to corn seed at 0, 1, 5, 25 and 125 g/cwt (seed weight basis). The ABA was first converted to the sodium salt to render it soluble before making up the experimental seed treatment slurries. The treatments were made up in 3 ml samples of an aqueous slurry. All of the seed treatment slurry samples contained CF-Clear film-forming agent and Colorcoat Red (Becker Underwood), each at loz/cwt, and 0.167 oz/cwt Maxim XL fungicide (Syngenta). The slurry application volume was 20 oz/cwt (cwt=100 lbs of seed). One hundred gram samples of “Hughes High” hybrid corn seed were treated with the experimental slurries using a Hege 11 seed treater with a six-inch bowl.
Three replications of 50 seeds each were planted were planted in moist towels and germinated in the dark at 25° C. for 48 hours. The rolled towels were then packed in ice for 4 days. After the cold period the towels were blotted and germination continued until the seedlings were large enough so that each seedling could be scored. In the case of the 125 g rate, this took 2 weeks. Seedling organs were scored independently for damage to the primary root, seminal roots, mesocotyl, coleoptile and the scutellar node.

[4] = test system: Corn seed (Hughes 1883); test: Soil test, standard delayed chilling (severe chilling after 2 days germination); details: for Strong seedlings (%) / Viable seedlings (%): soil, 2 days germination, then 1° C. 4 days
Procedure: (§1) Corn seed (Hughes 1883) was treated with ABA ammonium salt as described under Example 2. ABA rates of 0, 5, 10 and 25 g/cwt were applied.
(§2) The seed was planted in plastic boxes containing lkg of typical agricultural silt loam. Fifty seeds were planted 3 cm deep in each plastic box, and the soil in the box was adjusted to 23% soil moisture (wet-weight basis). Two replications of the experiment were performed. Two kinds of cold tolerance assays were conducted, “standard delayed chilling” and “chilling at spiking.” The boxes for the standard delayed chilling were […] and transferred to 1° C. for four days. Boxes for the “chilling at spiking” treatment were allowed to germinate at 25° C. until the coleoptiles were first observed emerging from the soil. This common point of development varied from 3 to 6 days depending upon the dose of ABA. Then these boxes too were transferred to the 1° C. chamber for four days.
(§3) After the cold treatment the boxes were moved to the 25° C. chamber for one week. The soil was washed from the seedlings and each seedling scored for damage as described under Example 2. “Viable seedlings” were seedlings capable of surviving under typical field conditions.

[5] = test system: Corn seed (Hughes 1883); test: Soil test, chilling at spiking (chilling at point of initial emergence); details: for Strong seedlings (%) / Viable seedlings (%): soil, 1° C. 4 days applied at initial emergence (spiking)
Procedure: as §1, §2, §3

[6] = Bay 41-2272 1 μg/seed, ABA 0 μg/seed
[7] = Bay 41-2272 10 μg/seed, ABA 0 μg/seed
[8] = ABA (sodium salt) seed treatment 1 g/cwt
[9] = ABA (sodium salt) seed treatment 5 g/cwt
[10] = ABA (sodium salt) seed treatment 25 g/cwt
[11] = ABA (sodium salt) seed treatment 125 g/cwt
[12] = ABA ammonium salt seed treatment 5 g/cwt
[13] = ABA ammonium salt seed treatment 10 g/cwt
[14] = ABA ammonium salt seed treatment 25 g/cwt
[15] = ABA (sodium salt) 20 μg/seed alone, sGC activator 0 μg/seed

Nc1nc(-c2nn(Cc3ccccc3F)c3ncccc23)ncc1C1CC1 [Bay 41-2272, 5-cyclopropyl-2-[1-(2-fluoro-benzyl)-1H-pyrazolo[3,4-b]pyridine-3-yl]pyrimidin-4-ylamine]
Percent Strong Seedlings [1, 6]: 1%
Percent Viable Seedlings [1, 6]: 65%
Percent Strong Seedlings [1, 7]: 0%
Percent Viable Seedlings [1, 7]: 64%

OCc1ccc(-c2nn(Cc3ccccc3)c3ccccc23)o1 [YC-1, 3-(5′-hydroxymethyl-2′-furyl)-1-benzylindazole]
Percent Strong Seedlings ([1]; YC-1 1 μg/seed, ABA 0 μg/seed): 0%
Percent Viable Seedlings ([1]; YC-1 1 μg/seed, ABA 0 μg/seed): 44%
Percent Strong Seedlings ([1]; YC-1 10 μg/seed, ABA 0 μg/seed): 4%
Percent Viable Seedlings ([1]; YC-1 10 μg/seed, ABA 0 μg/seed): 46%

S-(+)-abscisic acid [ABA]
Adventitious root growth (%) ([2]; ABA dip 10 ppm): 7%
Destroyed roots (%) ([2]; ABA dip 10 ppm): 86%
Lethal shoot (%) ([2]; ABA dip 10 ppm): 62%
Adventitious root growth (%) ([2]; ABA dip 100 ppm): 20%
Destroyed roots (%) ([2]; ABA dip 100 ppm): 84%
Lethal shoot (%) ([2]; ABA dip 100 ppm): 47%
Adventitious root growth (%) ([2]; ABA dip 1000 ppm): 89%
Destroyed roots (%) ([2]; ABA dip 1000 ppm): 48%
Lethal shoot (%) ([2]; ABA dip 1000 ppm): 11%
Protection of seedlings from cold injury (in words) ([2]; applied to the seedling prior to cold stress): can provide protection from injury, and stimulate adventitious root growth
Seedlings with lethal root injury (%) [3, 8]: 23.3%
Seedlings with lethal shoot injury (%) [3, 8]: 19.3%
Strong seedlings (%) [3, 8]: 18.0%
Seedlings with lethal root injury (%) [3, 9]: 0.7%
Seedlings with lethal shoot injury (%) [3, 9]: 8.0%
Strong seedlings (%) [3, 9]: 88.7%
Seedlings with lethal root injury (%) [3, 10]: 0.0%
Seedlings with lethal shoot injury (%) [3, 10]: 15.5%
Strong seedlings (%) [3, 10]: 95.3%
Seedlings with lethal root injury (%) [3, 11]: 0.7%
Seedlings with lethal shoot injury (%) [3, 11]: 11.4%
Strong seedlings (%) [3, 11]: 81.3%
Strong seedlings (%) [4, 12]: 53%
Viable seedlings (%) [4, 12]: 99.5%
Strong seedlings (%) [4, 13]: 96%
Viable seedlings (%) [4, 13]: 99.5%
Strong seedlings (%) [4, 14]: 100%
Viable seedlings (%) [4, 14]: 100%
Protection from cold in field soil (in words) ([4]; delivered as a seed treatment): protection of germinating seeds and young seedlings in field soil
Strong seedlings (%) [5, 12]: 0%
Viable seedlings (%) [5, 12]: 5%
Strong seedlings (%) [5, 13]: 18%
Viable seedlings (%) [5, 13]: 62%
Strong seedlings (%) [5, 14]: 10%
Viable seedlings (%) [5, 14]: 23%
Protection of seedlings from cold damage (in words) ([5]; seed treatment, chilling at spiking): results not only from delay of germination, but from induction of cold tolerance in the tissue
Percent Strong Seedlings [1, 15]: 67%
Percent Viable Seedlings [1, 15]: 100%

Source: patent US20080318783A1, “Use of abscisic acid seed treatment to enhance corn emergence after early planting” (priority 2007, published 2008)
